Measured values: patent US12281080B2, “Quinoline-based compounds and methods of inhibiting CDK8/19” (University of South Carolina, priority 2018, dated 2025)

Legend:
ULK3 = ULK3 (Homo sapiens (Human), UniProt Q6PHR2); test: KINOMEscan scanMAX; format: binding; settings: 2000 nM; read-out: Percent Control
DLK (MAP3K12) = DLK (MAP3K12) (Homo sapiens (Human), UniProt Q12852); test: KINOMEscan scanMAX; format: binding; settings: 2000 nM; read-out: Percent Control
LATS2 = LATS2 (Homo sapiens (Human), UniProt Q9NRM7); test: KINOMEscan scanMAX; format: binding; settings: 2000 nM; read-out: Percent Control
FAK (PTK2) = FAK (PTK2) (Homo sapiens (Human), UniProt Q05397); test: KINOMEscan scanMAX; format: binding; settings: 2000 nM; read-out: Percent Control
CLK4 = CLK4 (Homo sapiens (Human), UniProt Q9HAZ1); test: KINOMEscan scanMAX; format: binding; settings: 2000 nM; read-out: Percent Control
RIPK4 = RIPK4 (Homo sapiens (Human), UniProt P57078); test: KINOMEscan scanMAX; format: binding; settings: 2000 nM; read-out: Percent Control
PAK2 = PAK2 (Homo sapiens (Human), UniProt Q13177); test: KINOMEscan scanMAX; format: binding; settings: 2000 nM; read-out: Percent Control
TGFBR1 = TGFBR1 (Homo sapiens (Human), UniProt P36897); test: KINOMEscan scanMAX; format: binding; settings: 2000 nM; read-out: Percent Control
[1] = molecular target: PFPK5(P.falciparum) (MAL13P1.279) (Plasmodium falciparum (isolate 3D7), UniProt P61075); test: KINOMEscan scanMAX; format: binding; settings: 2000 nM; read-out: Percent Control
MEK1 (MAP2K1) = MEK1 (MAP2K1) (Homo sapiens (Human), UniProt Q02750); test: KINOMEscan scanMAX; format: binding; settings: 2000 nM; read-out: Percent Control
TSSK3 = TSSK3 (Homo sapiens (Human), UniProt Q96PN8); test: KINOMEscan scanMAX; format: binding; settings: 2000 nM; read-out: Percent Control
MET = MET (Homo sapiens (Human), UniProt P08581); test: KINOMEscan scanMAX; format: binding; settings: 2000 nM; read-out: Percent Control
CDK11 (CDK19) = CDK11 (CDK19) (Homo sapiens (Human), UniProt Q9BWU1); test: KINOMEscan scanMAX; format: binding; settings: 2000 nM; read-out: Percent Control
PIM3 = PIM3 (Homo sapiens (Human), UniProt Q86V86); test: KINOMEscan scanMAX; format: binding; settings: 2000 nM; read-out: Percent Control
CAMK2D = CAMK2D (Homo sapiens (Human), UniProt Q13557); test: KINOMEscan scanMAX; format: binding; settings: 2000 nM; read-out: Percent Control
PCTK2 (CDK17) = PCTK2 (CDK17) (Homo sapiens (Human), UniProt Q00537); test: KINOMEscan scanMAX; format: binding; settings: 2000 nM; read-out: Percent Control
[2] = molecular target: RSK1(Kin.Dom.1-N-terminal) (RPS6KA1) (Homo sapiens (Human), UniProt Q15418); test: KINOMEscan scanMAX; format: binding; settings: 2000 nM; read-out: Percent Control
RIPK2 = RIPK2 (Homo sapiens (Human), UniProt O43353); test: KINOMEscan scanMAX; format: binding; settings: 2000 nM; read-out: Percent Control
NIK (MAP3K14) = NIK (MAP3K14) (Homo sapiens (Human), UniProt Q99558); test: KINOMEscan scanMAX; format: binding; settings: 2000 nM; read-out: Percent Control
[3] = molecular target: TYK2(JH2domain-pseudokinase) (Homo sapiens (Human), UniProt P29597); test: KINOMEscan scanMAX; format: binding; settings: 2000 nM; read-out: Percent Control
YANK3 (STK32C) = YANK3 (STK32C) (Homo sapiens (Human), UniProt Q86UX6); test: KINOMEscan scanMAX; format: binding; settings: 2000 nM; read-out: Percent Control
HIPK3 = HIPK3 (Homo sapiens (Human), UniProt Q9H422); test: KINOMEscan scanMAX; format: binding; settings: 2000 nM; read-out: Percent Control
MAP3K15 = MAP3K15 (Homo sapiens (Human), UniProt Q6ZN16); test: KINOMEscan scanMAX; format: binding; settings: 2000 nM; read-out: Percent Control
OSR1 (OXSR1) = OSR1 (OXSR1) (Homo sapiens (Human), UniProt O95747); test: KINOMEscan scanMAX; format: binding; settings: 2000 nM; read-out: Percent Control
CAMK1B (PNCK) = CAMK1B (PNCK) (Homo sapiens (Human), UniProt Q6P2M8); test: KINOMEscan scanMAX; format: binding; settings: 2000 nM; read-out: Percent Control
HL60-Luc cells = test: HL60-Luc proliferation assay (BLI); format: cell-based; settings: HL-60-Luc, 168 h; 7 days
Method: The anti-leukemic activity was also evaluated with a HL60 assay. The HL60 assay was performed by a similar procedure as MV4-11 assay. A derivative of the HL-60 leukemia cell line was generated to express Luciferase and ZsGreen by lentiviral infection with pHIV-Luc-ZsGreen, to enable leukemia growth analysis by bioluminescence imaging (BLI). The initial Luciferase-ZsGreen transduced cell population was sorted for ZsGreen positivity with fluorescence activated cell sorting and individual clones were tested for luciferase expression. […] The HL-60 assay was performed in 96-well plates by treating the HL60-Luc cells with testing compounds at different concentrations for 7 days, followed by BLI to quantify the effects of test articles on cell proliferation.

MLK3 (MAP3K11) = MLK3 (MAP3K11) (Homo sapiens (Human), UniProt Q16584); test: KINOMEscan scanMAX; format: binding; settings: 2000 nM; read-out: Percent Control
GRK1 = GRK1 (Homo sapiens (Human), UniProt Q15835); test: KINOMEscan scanMAX; format: binding; settings: 2000 nM; read-out: Percent Control
MAP4K2 = MAP4K2 (Homo sapiens (Human), UniProt Q12851); test: KINOMEscan scanMAX; format: binding; settings: 2000 nM; read-out: Percent Control
CDKL1 = CDKL1 (Homo sapiens (Human), UniProt Q00532); test: KINOMEscan scanMAX; format: binding; settings: 2000 nM; read-out: Percent Control
[4] = molecular target: RSK1(Kin.Dom.2-C-terminal) (RPS6KA1) (Homo sapiens (Human), UniProt Q15418); test: KINOMEscan scanMAX; format: binding; settings: 2000 nM; read-out: Percent Control
IKK-alpha (CHUK) = IKK-alpha (CHUK) (Homo sapiens (Human), UniProt O15111); test: KINOMEscan scanMAX; format: binding; settings: 2000 nM; read-out: Percent Control
MEK4 (MAP2K4) = MEK4 (MAP2K4) (Homo sapiens (Human), UniProt P45985); test: KINOMEscan scanMAX; format: binding; settings: 2000 nM; read-out: Percent Control
PIP5K2B (PIP4K2B) = PIP5K2B (PIP4K2B) (Homo sapiens (Human), UniProt P78356); test: KINOMEscan scanMAX; format: binding; settings: 2000 nM; read-out: Percent Control
CSNK2A2 = CSNK2A2 (Homo sapiens (Human), UniProt P19784); test: KINOMEscan scanMAX; format: binding; settings: 2000 nM; read-out: Percent Control

Sequence of GRK1 (Q15835 whole entry): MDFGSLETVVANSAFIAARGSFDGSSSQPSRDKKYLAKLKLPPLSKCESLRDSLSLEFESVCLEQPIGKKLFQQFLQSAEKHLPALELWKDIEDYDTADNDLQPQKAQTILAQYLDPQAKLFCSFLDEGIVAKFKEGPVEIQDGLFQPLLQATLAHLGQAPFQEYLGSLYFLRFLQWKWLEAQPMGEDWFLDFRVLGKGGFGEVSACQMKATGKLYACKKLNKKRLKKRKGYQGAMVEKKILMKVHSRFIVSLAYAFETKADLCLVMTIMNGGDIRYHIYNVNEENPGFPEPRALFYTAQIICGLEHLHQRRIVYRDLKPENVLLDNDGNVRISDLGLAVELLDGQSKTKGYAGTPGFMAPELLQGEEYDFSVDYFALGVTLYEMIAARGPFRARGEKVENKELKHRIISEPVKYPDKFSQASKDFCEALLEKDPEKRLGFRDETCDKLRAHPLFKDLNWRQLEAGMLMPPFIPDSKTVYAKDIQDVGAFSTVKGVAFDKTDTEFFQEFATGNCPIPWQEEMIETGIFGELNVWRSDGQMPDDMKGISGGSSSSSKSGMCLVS
Sequence of PIP5K2B (PIP4K2B) (P78356 whole entry): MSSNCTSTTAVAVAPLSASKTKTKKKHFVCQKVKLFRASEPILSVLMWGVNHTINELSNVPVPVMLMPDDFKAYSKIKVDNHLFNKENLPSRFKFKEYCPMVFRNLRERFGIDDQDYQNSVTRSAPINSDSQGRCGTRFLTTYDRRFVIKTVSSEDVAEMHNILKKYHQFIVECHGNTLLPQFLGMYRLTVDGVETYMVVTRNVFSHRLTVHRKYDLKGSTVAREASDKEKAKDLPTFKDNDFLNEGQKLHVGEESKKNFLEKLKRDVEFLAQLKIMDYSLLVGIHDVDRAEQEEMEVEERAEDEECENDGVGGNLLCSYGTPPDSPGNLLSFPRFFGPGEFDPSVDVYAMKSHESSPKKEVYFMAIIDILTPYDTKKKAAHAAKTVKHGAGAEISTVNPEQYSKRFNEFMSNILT
Sequence of PCTK2 (CDK17) (Q00537 whole entry): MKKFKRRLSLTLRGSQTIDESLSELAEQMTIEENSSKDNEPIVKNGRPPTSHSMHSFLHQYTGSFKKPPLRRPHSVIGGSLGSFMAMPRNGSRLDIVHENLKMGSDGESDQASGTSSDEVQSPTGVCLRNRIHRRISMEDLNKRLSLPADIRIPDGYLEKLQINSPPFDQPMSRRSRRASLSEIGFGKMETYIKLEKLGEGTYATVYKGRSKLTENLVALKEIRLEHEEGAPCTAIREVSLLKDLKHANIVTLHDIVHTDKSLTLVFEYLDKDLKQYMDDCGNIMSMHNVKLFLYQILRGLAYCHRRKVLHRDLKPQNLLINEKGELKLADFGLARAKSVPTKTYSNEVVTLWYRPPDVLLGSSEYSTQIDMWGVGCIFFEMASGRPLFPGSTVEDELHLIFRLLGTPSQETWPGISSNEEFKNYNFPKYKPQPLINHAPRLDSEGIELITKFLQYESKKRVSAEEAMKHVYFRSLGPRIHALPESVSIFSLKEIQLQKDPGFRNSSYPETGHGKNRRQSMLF
Sequence of TGFBR1 (P36897 34-503): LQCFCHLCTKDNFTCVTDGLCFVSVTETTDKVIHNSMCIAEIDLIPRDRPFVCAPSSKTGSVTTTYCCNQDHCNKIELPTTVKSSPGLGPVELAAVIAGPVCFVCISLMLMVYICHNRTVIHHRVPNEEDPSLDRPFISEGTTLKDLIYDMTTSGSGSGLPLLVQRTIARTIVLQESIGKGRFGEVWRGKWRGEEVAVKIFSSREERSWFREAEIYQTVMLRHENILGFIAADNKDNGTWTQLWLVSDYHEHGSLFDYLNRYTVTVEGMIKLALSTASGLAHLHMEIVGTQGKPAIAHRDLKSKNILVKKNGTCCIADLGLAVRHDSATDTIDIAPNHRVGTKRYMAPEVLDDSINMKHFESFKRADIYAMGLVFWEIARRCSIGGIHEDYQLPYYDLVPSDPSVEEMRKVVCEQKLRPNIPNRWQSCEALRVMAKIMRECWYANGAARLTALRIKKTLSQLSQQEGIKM
Sequence of RSK1(Kin.Dom.1-N-terminal) (RPS6KA1) (Q15418 62-321): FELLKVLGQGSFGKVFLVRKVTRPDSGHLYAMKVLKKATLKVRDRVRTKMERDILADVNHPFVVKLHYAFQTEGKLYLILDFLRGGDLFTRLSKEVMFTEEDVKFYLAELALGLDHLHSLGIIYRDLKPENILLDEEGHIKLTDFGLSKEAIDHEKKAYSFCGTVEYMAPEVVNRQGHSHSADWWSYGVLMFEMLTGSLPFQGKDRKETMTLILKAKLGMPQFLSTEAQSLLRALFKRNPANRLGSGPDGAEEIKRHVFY
Sequence of CAMK1B (PNCK) (Q6P2M8 whole entry): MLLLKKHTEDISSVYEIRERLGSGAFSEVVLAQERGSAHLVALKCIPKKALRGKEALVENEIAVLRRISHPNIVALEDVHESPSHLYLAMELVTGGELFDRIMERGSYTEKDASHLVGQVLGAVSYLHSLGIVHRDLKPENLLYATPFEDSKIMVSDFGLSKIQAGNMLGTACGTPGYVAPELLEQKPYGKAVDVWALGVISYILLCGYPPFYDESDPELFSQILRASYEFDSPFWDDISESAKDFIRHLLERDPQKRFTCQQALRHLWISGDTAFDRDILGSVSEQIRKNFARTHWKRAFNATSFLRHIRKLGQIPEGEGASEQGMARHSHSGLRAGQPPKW
Sequence of DLK (MAP3K12) (Q12852 whole entry): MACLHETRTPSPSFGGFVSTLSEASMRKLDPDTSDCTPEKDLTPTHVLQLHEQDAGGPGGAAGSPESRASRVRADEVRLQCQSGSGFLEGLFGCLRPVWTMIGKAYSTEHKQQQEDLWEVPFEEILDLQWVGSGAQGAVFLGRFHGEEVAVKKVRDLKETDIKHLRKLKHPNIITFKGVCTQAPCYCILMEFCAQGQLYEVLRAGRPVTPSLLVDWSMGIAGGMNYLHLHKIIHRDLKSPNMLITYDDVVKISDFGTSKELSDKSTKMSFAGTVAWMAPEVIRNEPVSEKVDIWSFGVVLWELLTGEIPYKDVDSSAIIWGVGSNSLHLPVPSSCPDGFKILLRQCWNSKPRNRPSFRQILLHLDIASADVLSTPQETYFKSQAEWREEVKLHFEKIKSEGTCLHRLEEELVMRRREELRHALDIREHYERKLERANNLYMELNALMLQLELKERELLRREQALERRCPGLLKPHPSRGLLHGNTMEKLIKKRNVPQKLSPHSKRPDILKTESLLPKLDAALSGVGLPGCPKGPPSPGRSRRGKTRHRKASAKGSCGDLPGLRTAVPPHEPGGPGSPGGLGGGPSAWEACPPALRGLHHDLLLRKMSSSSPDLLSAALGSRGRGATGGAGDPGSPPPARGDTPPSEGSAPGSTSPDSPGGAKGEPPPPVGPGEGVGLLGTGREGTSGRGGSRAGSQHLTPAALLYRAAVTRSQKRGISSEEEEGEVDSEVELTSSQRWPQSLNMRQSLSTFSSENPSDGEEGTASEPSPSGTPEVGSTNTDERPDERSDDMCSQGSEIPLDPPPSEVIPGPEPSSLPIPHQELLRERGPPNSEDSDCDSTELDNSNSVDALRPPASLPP
Sequence of TSSK3 (Q96PN8 whole entry): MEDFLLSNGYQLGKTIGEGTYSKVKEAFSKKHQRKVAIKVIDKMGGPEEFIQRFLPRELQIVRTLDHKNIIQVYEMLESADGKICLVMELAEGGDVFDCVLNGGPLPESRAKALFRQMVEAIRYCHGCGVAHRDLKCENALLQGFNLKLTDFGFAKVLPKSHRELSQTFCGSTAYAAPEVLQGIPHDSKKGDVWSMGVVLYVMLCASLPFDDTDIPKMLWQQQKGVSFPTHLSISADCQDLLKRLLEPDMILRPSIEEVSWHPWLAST
Sequence of YANK3 (STK32C) (Q86UX6 whole entry): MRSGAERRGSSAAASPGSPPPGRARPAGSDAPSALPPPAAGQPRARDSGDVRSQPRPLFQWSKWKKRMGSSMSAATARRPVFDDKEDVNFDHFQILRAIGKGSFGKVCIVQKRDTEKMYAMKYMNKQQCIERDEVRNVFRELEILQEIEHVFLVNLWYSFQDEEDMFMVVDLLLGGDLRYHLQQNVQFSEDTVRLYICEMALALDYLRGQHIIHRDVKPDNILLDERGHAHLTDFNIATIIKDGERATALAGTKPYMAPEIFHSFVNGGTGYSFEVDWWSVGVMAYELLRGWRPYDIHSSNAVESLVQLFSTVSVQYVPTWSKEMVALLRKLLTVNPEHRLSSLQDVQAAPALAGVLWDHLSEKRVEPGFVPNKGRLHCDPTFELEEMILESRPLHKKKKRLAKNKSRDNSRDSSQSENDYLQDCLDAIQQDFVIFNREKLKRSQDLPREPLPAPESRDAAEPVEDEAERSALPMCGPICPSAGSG
Sequence of CAMK2D (Q13557 whole entry): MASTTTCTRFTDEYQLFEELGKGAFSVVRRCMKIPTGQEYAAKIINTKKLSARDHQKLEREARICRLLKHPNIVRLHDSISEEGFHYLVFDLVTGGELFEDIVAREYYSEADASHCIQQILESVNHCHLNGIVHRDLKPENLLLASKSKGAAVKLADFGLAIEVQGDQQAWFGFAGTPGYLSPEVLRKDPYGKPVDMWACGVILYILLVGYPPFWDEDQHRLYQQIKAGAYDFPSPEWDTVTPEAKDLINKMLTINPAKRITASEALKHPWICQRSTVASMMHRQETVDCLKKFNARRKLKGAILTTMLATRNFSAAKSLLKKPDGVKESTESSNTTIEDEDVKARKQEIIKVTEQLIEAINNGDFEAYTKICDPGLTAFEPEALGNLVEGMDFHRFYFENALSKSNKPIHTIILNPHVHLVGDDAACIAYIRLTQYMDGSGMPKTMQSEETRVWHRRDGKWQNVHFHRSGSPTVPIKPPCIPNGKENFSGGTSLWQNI
Sequence of RSK1(Kin.Dom.2-C-terminal) (RPS6KA1) (Q15418 418-675): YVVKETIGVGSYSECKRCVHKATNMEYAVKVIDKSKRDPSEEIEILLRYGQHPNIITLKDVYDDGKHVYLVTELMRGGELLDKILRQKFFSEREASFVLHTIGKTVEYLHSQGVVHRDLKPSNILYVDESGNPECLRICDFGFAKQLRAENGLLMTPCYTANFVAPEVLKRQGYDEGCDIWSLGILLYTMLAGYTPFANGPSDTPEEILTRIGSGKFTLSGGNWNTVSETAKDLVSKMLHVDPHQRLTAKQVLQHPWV

Q: How did the remaining binding at 2 µM (ULK3) turn out when `CN1CCN(C(=O)c2ccc3cc(CCNc4ccnc5ccc(C#N)cc45)ccc3c2)CC1` [compound 6148, 4-((2-(6-(4-methylpiperazine-1-carbonyl)naphthalen-2-yl)ethyl)amino)quinoline-6-carbonitrile] was run?
A: 70%

Q: And the remaining binding at 2 µM (DLK (MAP3K12))?
A: 68%

Q: What about the remaining binding at 2 µM (LATS2) of the same compound?
A: 88%

Q: What about the remaining binding at 2 µM (FAK (PTK2)) of the same compound?
A: 89%

Q: What about the remaining binding at 2 µM (CLK4) of the same compound?
A: 69%

Q: And the remaining binding at 2 µM (RIPK4)?
A: 57%

Q: And the remaining binding at 2 µM (PAK2)?
A: 84%

Q: And the remaining binding at 2 µM (TGFBR1)?
A: 100%

Q: And the remaining binding at 2 µM [1]?
A: 70%

Q: And the remaining binding at 2 µM (MEK1 (MAP2K1))?
A: 59%

Q: And the remaining binding at 2 µM (TSSK3)?
A: 81%

Q: What about the remaining binding at 2 µM (MET) of the same compound?
A: 90%

Q: And the remaining binding at 2 µM (CDK11 (CDK19))?
A: 13%

Q: What about the remaining binding at 2 µM (PIM3) of the same compound?
A: 96%

Q: What about the remaining binding at 2 µM (CAMK2D) of the same compound?
A: 94%

Q: What about the remaining binding at 2 µM (PCTK2 (CDK17)) of the same compound?
A: 98%

Q: What about the remaining binding at 2 µM [2] of the same compound?
A: 91%

Q: What about the remaining binding at 2 µM (RIPK2) of the same compound?
A: 100%

Q: And the remaining binding at 2 µM (NIK (MAP3K14))?
A: 88%

Q: What about the remaining binding at 2 µM [3] of the same compound?
A: 63%

Q: And the remaining binding at 2 µM (YANK3 (STK32C))?
A: 100%

Q: What about the remaining binding at 2 µM (HIPK3) of the same compound?
A: 52%

Q: What about the remaining binding at 2 µM (MAP3K15) of the same compound?
A: 83%

Q: What about the remaining binding at 2 µM (OSR1 (OXSR1)) of the same compound?
A: 51%

Q: What about the remaining binding at 2 µM (CAMK1B (PNCK)) of the same compound?
A: 92%

Q: What about the IC50 (HL60-Luc cells) of the same compound?
A: 114 nM

Q: And the remaining binding at 2 µM (MLK3 (MAP3K11))?
A: 99%

Q: What about the remaining binding at 2 µM (GRK1) of the same compound?
A: 63%

Q: And the remaining binding at 2 µM (MAP4K2)?
A: 29%

Q: What about the remaining binding at 2 µM (CDKL1) of the same compound?
A: 94%

Q: And the remaining binding at 2 µM [4]?
A: 97%

Q: What about the remaining binding at 2 µM (IKK-alpha (CHUK)) of the same compound?
A: 76%

Q: What about the remaining binding at 2 µM (MEK4 (MAP2K4)) of the same compound?
A: 58%

Q: And the remaining binding at 2 µM (PIP5K2B (PIP4K2B))?
A: 85%

Q: And the remaining binding at 2 µM (CSNK2A2)?
A: 64%
